Legend:
[1] = Comparative rat pharmacokinetic study, plasma analyzed by LC MS/MS; type: in vivo, albino Wistar rats
Procedure: Comparative pharmacokinetic study of complex of example-I at two doses with physical mixtures of Atovaquone and Proguanil hydrochloride (Malarone) was carried for profiling of bioavailability of Atovaquone, Proguanil and Cycloguanil from all three samples. Four groups of 13-14 weeks old five albino Wistar rats were made through random selection. Group I served as a vehicle control and received only 0.5% sodium carboxymethyl cellulose, group II and group III received two different doses of complex of Example I, and group IV received a physical mixture of Atovaquone and Proguanil hydrochloride (Malarone). The dose volume used for this study was 10 ml/Kg of body weight. Orbital sinus was used as blood collection site and the blood was collected in EDTA coated microcentrifuge tubes at different time points between 0 min (pre dose) to 240 hrs. Plasma samples were analyzed by LC MS/MS. Comparative pharmacokinetic profiles of Atovaquone, Proguanil and Cycloguanil are as given below in table 3, 4, and 5 respectively: […]

[2] = Intrinsic dissolution/solubility under standard USP conditions (40% isopropyl alcohol with phosphate buffer pH 8.0); type: physicochemical
physchem = type: physicochemical
[3] = tablet formulation, Malarone label; cited from earlier work

Structure (SMILES): CC(C)NC(=N)NC(=N)Nc1ccc(Cl)cc1.O=C1C(O)=C([C@H]2CC[C@H](c3ccc(Cl)cc3)CC2)C(=O)c2ccccc21 [Complex, trans-Atovaquone-Proguanil complex (1:1)]
- Atovaquone bioavailability increase versus corresponding ratio of physical mixture [1]: increased by at least two times
- AUC0-inf of Atovaquone ([1]; Atovaquone dose 6.166 mg/kg): 298501.894 ng/hrxml
- Cmax of Atovaquone ([1]; Atovaquone dose 6.166 mg/kg): 4925.009 ng/mL
- MRT of Atovaquone ([1]; Atovaquone dose 6.166 mg/kg): 39.240 h
- T1/2 of Atovaquone ([1]; Atovaquone dose 6.166 mg/kg): 26.833 h
- Tmax of Atovaquone ([1]; Atovaquone dose 6.166 mg/kg): 19.200 h
- Vd of Atovaquone ([1]; Atovaquone dose 6.166 mg/kg): 0.001 L/kg
- AUC0-inf of Atovaquone ([1]; Atovaquone dose 6.166 mg/kg (Table 3)): 298501.894 ± 117805.568 ng/hr × mL
- AUC0-inf of Atovaquone ([1]; Atovaquone dose 13.005 mg/kg): 472148.864 ng/hrxml
- Cmax of Atovaquone ([1]; Atovaquone dose 13.005 mg/kg): 6779.226 ng/mL
- MRT of Atovaquone ([1]; Atovaquone dose 13.005 mg/kg): 50.644 h
- T1/2 of Atovaquone ([1]; Atovaquone dose 13.005 mg/kg): 29.542 h
- Tmax of Atovaquone ([1]; Atovaquone dose 13.005 mg/kg): 12.8 h
- Vd of Atovaquone ([1]; Atovaquone dose 13.005 mg/kg): 0.001 L/kg
- AUC0-inf of Cycloguanil ([1]; Proguanil dose 4.2642 mg/kg): 38.910 ng/hrxml
- AUC0-inf of Proguanil ([1]; Proguanil dose 4.2642 mg/kg): 497.306 ng/hrxml
- Cl of Cycloguanil ([1]; Proguanil dose 4.2642 mg/kg): 0.118 L/kg/hr
- Cl of Proguanil ([1]; Proguanil dose 4.2642 mg/kg): 0.15 mL/min/kg
- Cmax of Cycloguanil ([1]; Proguanil dose 4.2642 mg/kg): 4.667 ng/ml
- Cmax of Proguanil ([1]; Proguanil dose 4.2642 mg/kg): 87.400 ng/mL
- MRT of Cycloguanil ([1]; Proguanil dose 4.2642 mg/kg): 5.753 hr
- MRT of Proguanil ([1]; Proguanil dose 4.2642 mg/kg): 5.581 h
- T1/2 of Cycloguanil ([1]; Proguanil dose 4.2642 mg/kg): 5.620 hr
- T1/2 of Proguanil ([1]; Proguanil dose 4.2642 mg/kg): 4.779 h
- Tmax of Cycloguanil ([1]; Proguanil dose 4.2642 mg/kg): 3.200 hr
- Tmax of Proguanil ([1]; Proguanil dose 4.2642 mg/kg): 2.800 h
- Vd of Cycloguanil ([1]; Proguanil dose 4.2642 mg/kg): 0.873 L/Kg
- Vd of Proguanil ([1]; Proguanil dose 4.2642 mg/kg): 0.061 L/kg
- AUC0-inf of Cycloguanil ([1]; Proguanil dose 8.995 mg/kg): 34.797 ng/hrxml
- AUC0-inf of Proguanil ([1]; Proguanil dose 8.995 mg/kg): 485.239 ng/hrxml
- Cl of Cycloguanil ([1]; Proguanil dose 8.995 mg/kg): 0.261 L/kg/hr
- Cl of Proguanil ([1]; Proguanil dose 8.995 mg/kg): 0.317 mL/min/kg
- Cmax of Cycloguanil ([1]; Proguanil dose 8.995 mg/kg): 6.954 ng/ml
- Cmax of Proguanil ([1]; Proguanil dose 8.995 mg/kg): 94.515 ng/mL
- MRT of Cycloguanil ([1]; Proguanil dose 8.995 mg/kg): 5.106 hr
- MRT of Proguanil ([1]; Proguanil dose 8.995 mg/kg): 4.933 h
- T1/2 of Cycloguanil ([1]; Proguanil dose 8.995 mg/kg): 4.406 hr
- T1/2 of Proguanil ([1]; Proguanil dose 8.995 mg/kg): 13.149 h
- Tmax of Cycloguanil ([1]; Proguanil dose 8.995 mg/kg): 2.00 hr
- Tmax of Proguanil ([1]; Proguanil dose 8.995 mg/kg): 1.15 h
- Vd of Cycloguanil ([1]; Proguanil dose 8.995 mg/kg): 1.618 L/Kg
- Vd of Proguanil ([1]; Proguanil dose 8.995 mg/kg): 0.349 L/kg
- % Dissolution Atovaquone ([2]; 1 Hrs.): 2.64%
- % Dissolution Proguanil ([2]; 1 Hrs.): 1.97%
- % Dissolution Atovaquone ([2]; 2 Hrs.): 5.61%
- % Dissolution Proguanil ([2]; 2 Hrs.): 3.64%
- % Dissolution Atovaquone ([2]; 3 Hrs.): 7.72%
- % Dissolution Proguanil ([2]; 3 Hrs.): 5.22%
- % Dissolution Atovaquone ([2]; 4 Hrs.): 9.75%
- % Dissolution Proguanil ([2]; 4 Hrs.): 6.38%
- intrinsic solubility of Atovaquone compared with physical mixture of Atovaquone-Proguanil ([2]; 40% isopropyl alcohol with phosphate buffer pH 8.0): almost doubled

Structure (SMILES): O=C1C(O)=C([C@H]2CC[C@H](c3ccc(Cl)cc3)CC2)C(=O)c2ccccc21 [Atovaquone, trans-2-[4-(4-chlorophenyl)cyclohexyl]-3-hydroxy-1,4-naphthoquinone]
- pKa (physchem): 8.39
- absolute bioavailability of Atovaquone [3]: 23%

Source: patent publication US8987234B2, “Complex for treatment and/or prophylaxis of parasitic infections” (IPCA Laboratories Ltd., priority 2009, dated 2015)
